Results: PMC11476342 (Cancers, 2024)

Legend:
J82 = assay: MTT cell viability assay; format: cell-based, human; details: for IC50: Homo sapiens, J82, 72 h, MTT, compound alone, read-out: IC50 ± SD
Method: (§1) The cell viability for determination of IC50 values and synergism studies was analyzed by MTT assay as previously described. […] For preincubation experiments, 1600 c/w (cells per well) for J82 and 1200 c/w for J82 cisR were used. After the incubation time, 25 µL MTT (3-(4,5-dimethylthiazol-2-yl)-2,5-diphenyltetrazolium bromide, Serva, Heidelberg, Germany) solution (5 mg/mL in phosphate-buffered saline) was added. The formazan was dissolved in 75 µL DMSO, and the absorption was measured at 540 nm and 690 nm with a microplate reader (ThermoFisher Multiskan, Thermo Scientific, Wesel, Germany).

J82 cisR = assay: MTT cell viability assay; format: cell-based, human; details: for IC50: Homo sapiens, 72 h, MTT, compound alone, read-out: IC50 ± SD
Method: as §1

[1] = cited from earlier work
[2] = parameters: method as in PMID 33723398, PMID 29733771, PMID 27063977, PMID 27063978, PMID 26341814; details: patients; cited from earlier work
HEK293 = assay: MTT cell viability assay, non-cancer cell line; format: cell-based, human; details: Homo sapiens, HEK293; MTT, 72 h, compound alone; read-out: IC50 ± SD
Method: as §1

T24 LTT = assay: MTT cell viability assay; format: cell-based, human
Method: as §1

T24 = assay: MTT cell viability assay; format: cell-based, human
Method: as §1

BRDs = system: BRDs; parameters: method as in PMID 34582215; details: cited from earlier work
HDAC 8 = target: T1, HDAC 8 (Homo sapiens, UniProt Q9BY41); assay: Enzyme HDAC inhibition assay; format: biochemical; details: recombinant enzyme, Boc-Lys-(Tfa)-AMC; read-out: HDAC8 IC50 ± SD
T1 construct: purchased Reaction Biology Corp (Malvern, PA, USA) KDA-21-481
T1 sequence (Q9BY41 1-377): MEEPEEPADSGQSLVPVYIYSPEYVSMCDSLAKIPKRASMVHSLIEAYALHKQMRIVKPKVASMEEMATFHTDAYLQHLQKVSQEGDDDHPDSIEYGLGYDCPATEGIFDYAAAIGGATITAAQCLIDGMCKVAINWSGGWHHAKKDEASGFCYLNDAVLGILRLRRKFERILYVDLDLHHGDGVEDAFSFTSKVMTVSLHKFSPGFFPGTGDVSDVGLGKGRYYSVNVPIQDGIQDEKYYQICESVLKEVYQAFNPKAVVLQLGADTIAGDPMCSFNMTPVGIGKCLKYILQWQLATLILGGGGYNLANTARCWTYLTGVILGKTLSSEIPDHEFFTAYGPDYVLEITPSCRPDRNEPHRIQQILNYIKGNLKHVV
Description: (§2) The human recombinant enzymes were ordered from Reaction Biology Corp (Malvern, PA, USA).

HDAC 4 = target: T2, HDAC 4 (Homo sapiens, UniProt P56524); assay: Enzyme HDAC inhibition assay; format: biochemical; details: recombinant enzyme, Boc-Lys-(Tfa)-AMC; read-out: HDAC4 IC50 ± SD
T2 construct: purchased Reaction Biology Corp (Malvern, PA, USA) KDA-21-279
Description: as §2

HDAC 1-3 and 6 = system: HDAC 1-3 and 6; parameters: method as in PMID 34582215; details: cited from earlier work
caspase 3/7 = assay: Activation of caspase 3/7 (CellEvent, high content screening); format: cell-based, human; details: single treatment, all four cell lines (J82, J82 cisR, T24, T24 LTT)
Method: Activation of caspase 3/7 was examined using the CellEvent Caspase-3/7 green detection reagent (Thermo Scientific, Wesel, Germany) according to the manufacturer’s instructions. The cells were seeded in 96-well-plates (Corning, Kaiserslautern, Germany) and treated with the indicated compounds for 48 h (J82 1600 c/w; J82 cisR 800 c/w; T24 1200 c/w; T24 LTT 3000 c/w). […] The supernatant was aspirated and a solution of CellEvent Caspase 3/7 green detection reagent (PBS, 1% heat inactivated fetal calf serum) was added to the cells for a final concentration of 2 µM. Hoechst 33342 (10 mg/mL in water, Sigma-Aldrich, Steinheim, Germany) was used for nuclei staining. The cells were incubated for 30 min at 37 °C and 5% CO2 before imaging by using the Thermo Fischer ArrayScan XTI high content screening (HCS) system with a 10 × magnification (Thermo Scientific, Wesel, Germany).

[3] = 7.5 µM of 20, without cisplatin (Figure 10, S17)

T2 sequence (P56524 whole entry): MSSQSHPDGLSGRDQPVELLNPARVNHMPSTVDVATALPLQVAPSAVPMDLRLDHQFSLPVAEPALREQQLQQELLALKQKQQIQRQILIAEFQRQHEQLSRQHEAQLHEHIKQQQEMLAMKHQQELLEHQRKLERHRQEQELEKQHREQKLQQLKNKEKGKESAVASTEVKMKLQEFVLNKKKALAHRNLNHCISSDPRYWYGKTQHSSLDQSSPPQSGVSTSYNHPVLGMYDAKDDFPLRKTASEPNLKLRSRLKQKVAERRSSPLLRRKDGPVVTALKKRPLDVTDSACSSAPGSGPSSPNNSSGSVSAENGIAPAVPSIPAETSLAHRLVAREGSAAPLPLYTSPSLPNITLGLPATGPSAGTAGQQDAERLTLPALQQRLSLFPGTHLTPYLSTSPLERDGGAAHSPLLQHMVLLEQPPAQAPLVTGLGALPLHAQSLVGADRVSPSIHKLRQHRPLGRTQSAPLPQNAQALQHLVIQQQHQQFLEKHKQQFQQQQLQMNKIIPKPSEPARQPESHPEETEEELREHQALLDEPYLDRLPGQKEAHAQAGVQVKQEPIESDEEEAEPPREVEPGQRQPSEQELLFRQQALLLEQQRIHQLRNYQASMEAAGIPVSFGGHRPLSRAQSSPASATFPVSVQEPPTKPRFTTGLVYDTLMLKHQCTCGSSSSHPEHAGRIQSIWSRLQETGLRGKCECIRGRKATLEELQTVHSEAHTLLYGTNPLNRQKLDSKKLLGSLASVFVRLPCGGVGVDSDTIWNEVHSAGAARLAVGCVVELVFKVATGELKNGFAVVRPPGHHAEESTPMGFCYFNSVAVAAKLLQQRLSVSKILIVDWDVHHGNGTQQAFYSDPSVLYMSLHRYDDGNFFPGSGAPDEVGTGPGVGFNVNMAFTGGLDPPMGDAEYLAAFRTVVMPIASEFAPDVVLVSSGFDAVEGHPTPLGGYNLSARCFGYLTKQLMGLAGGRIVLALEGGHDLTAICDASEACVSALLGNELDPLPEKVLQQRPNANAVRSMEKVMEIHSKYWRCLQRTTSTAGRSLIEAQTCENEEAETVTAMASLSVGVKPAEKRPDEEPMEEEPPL

| IC50 (T24 LTT; Homo sapiens, MTT, 72 h, compound alone, read-out: IC50 ± SD) [µM] | IC50 (T24; Homo sapiens, T-24, MTT, 72 h, compound alone, read-out: IC50 ± SD) [µM] | IC50 (HDAC 8) [µM] | IC50 (HDAC 4) [µM] | caspase 3/7 activation (caspase 3/7) | Compound | IC50 (J82; 72 h) [µM] | fold-increased IC50 value compared to JQ1 (J82; J82, MTT, 72 h) [fold] | IC50 (J82 cisR) [µM] | bioavailability ([1]; OTX015: oral, in contrast to JQ1) | half-life ([1]; in vivo, OTX015 in contrast to JQ1) | dose-limiting toxicities [2] | IC50 (HEK293) [µM] | decrease in cell viability (T24 LTT; [3]) | decrease in cell viability (J82; [3]) | decrease in cell viability (T24; [3]) | decrease in cell viability (J82 cisR; [3]) | inhibitory activity to BRDs (BRDs) | inhibitory activity against HDAC 1-3 and 6 (HDAC 1-3 and 6) |
| --- | --- | --- | --- | --- | --- | --- | --- | --- | --- | --- | --- | --- | --- | --- | --- | --- | --- | --- |
|  |  |  |  |  | Cc1sc2c(c1C)C(c1ccc(Cl)cc1)=NC(CC(=O)NCCCN1CCN(C)CC1)c1nnc(C)n1-2 (stereo not shown) [JQ35] | 69.5 ± 7.88 | 3.7 | 1.49 ± 0.34 |  |  |  |  |  |  |  |  |  |  |
|  |  |  |  |  | Cc1sc2c(c1C)C(c1ccc(Cl)cc1)=N[C@@H](CC(=O)Nc1ccc(O)cc1)c1nnc(C)n1-2 [OTX015] | 18.9 ± 2.82 |  | 1.04 ± 0.13 | better | extended | anemia, thrombocytopenia, fatigue, and hyperbilirubinemia | 1.98 ± 0.42 |  |  |  |  |  |  |
| 4.66 ± 0.41 | 6.95 ± 0.54 | 6.03 | 207 | only weakly activated | CCc1c(C(=O)Nc2cc(/C=C/C(=O)NO)ccc2OC)[nH]c(C)c1C(C)=O [compound 20] | 7.17 ± 0.57 |  | 7 ± 0.49 |  |  |  |  | 60–70% | 60–70% | 60–70% | 60–70% | single-digit micromolar range | sub-micromolar |
